Assay results from patent publication US20250262167A1, “COMPOUNDS, TARGETS AND PATHWAYS FOR MACROPHAGE MODULATION” (Massachusetts Institute of Technology, priority 2020, published 2025).

How the values were obtained:
hMDMs = assay: RNA-seq transcriptional response of hMDMs (GSEA, GO enrichment); type: cell-based, human; conditions: for gene expression of TPP modules (#30, #32) / gene expression of typical M1 modules (#7, #8): hMDMs, 24 hrs, GSEA; for macrophage phenotype at transcriptional and translational level: human macrophages
Method: Duplicate hMDM samples were treated with 2 M2-activating and 6 M1-activating compounds as well as IL-4 and IFNγ for 24 hrs. Gene expression levels were measured by RNA-seq separately. GSEA preranked analysis was performed based on the whole genome gene list ranked on gene expression changes using a gene set of 49 transcriptional modules in response to 29 stimuli in hMDMs. bosut.: bosutinib; alster.: alsterpaullone; mocet.: mocetinostat; thios.: thiostrepton; niclo.: niclosamide; chlor.: chlorhexidine; fenb.: fenbendazole; fluvo.: fluvoxamine. […] Duplicate hMDM samples were stimulated with each ligand and analyzed by RNA-seq separately.
DEGs were identified by edgeR at P<0.05 with at least 2 fold-change.
RNAs were extracted with RNeasy MiniElute kit (Qiagen), converted into cDNA and sequenced using Next-Generation Sequencing (Illumina). […] Differential expression analysis was performed using the program edgeR at P<0.05 with a 2 fold-change. The gene expression level across different samples was normalized and quantified using the function of cpm. Differentially expressed genes were annotated using online functional enrichment analysis tool DAVID (http://david.ncifcrf.gov/). Gene set enrichment analysis were performed with GSEA with FDR q-value<0.05.
Fresh hMDMs were treated with compounds at the EC for 24 hours, followed by RNA-seq.

[1] = tested on: hMDMs differentiated into M2 by IL-4 plus IL-13; assay: Reprogramming screen and dosage response on M2-like differentiated macrophages; conditions: for EC (M1 Z-score cutoff): Homo sapiens, Macrophage, 24 h, read-out: EC;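 for all read-outs here: human monocyte-derived macrophages held 24 h in 5 ng/mL IL-4 plus IL-13 before 24 h compound exposure, with cell shape measured from images in 384-well plates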
Method: Shown are comparison of Z-scores between 5 μM or 10 μM of compounds. […] Shown are comparison of Z-scores between 5 μM or 10 μM of compounds. […] EC and fitness of 21 M1-polarizing (triangle) and 19 M2-polarizing compounds (circle) were calculated by the Michaelis-Menten equation and plotted. Data were summarized from 3 independent experiments.
Human macrophages were seeded into optical 384-well plates. Sixteen hours later, medium in M1 plates were replaced by M1 differentiating medium (complete RPMI with 50 ng/mL IFNγ and 50 ng/mL TNFα) and medium in M2 plates by M2 differentiating medium (complete RPMI with 5 ng/mL IL-4 and 5 ng/mL IL-13). After 24 hrs cell differentiation, M1 plates (M1 macrophages) and M2 plates (M2 macrophages) were treated with M2-activating compounds and M1-activating compounds respectively for 24 hrs. Two independent experiments were performed with or without replacing differentiating medium right before treatment. Cell imaging and analysis were performed as indicated above.
To investigate whether the identified compounds could reprogram or reactivate macrophages after M1- or M2-like differentiation, we rescreened the hits on M1- or M2-activated macrophages. hMDMs were activated into M2-like macrophages by IL-4 plus IL-13 or M1-like macrophages by IFNγ plus TNFα. After removing the differentiating cytokines, M2-like macrophages were treated with each of the 166 M1-activating compounds and M1-like macrophages were treated with each of the 180 M2-activating compounds at a final concentration of either 5 μM and 10 μM. 24 hours later, cell images were taken and cell shapes were quantified. […] Dosage responses were carried out with 40 commercial available compounds (21 M1-activating and 19 M2-activating) on polarized macrophages.
We also rescreened the hits on differentiated macrophages in the presence of differentiating cytokines: either IL-4 plus IL-13 or IFNγ plus TNFα.

[2] = tested on: human monocyte-derived macrophages (hMDMs); assay: High throughput phenotypic screen of macrophage activation (cell shape, Z-score); type: cell-based; set-up: key to Average Z-value: Z-score vs DMSO; negative = round cells, positive = elongated; conditions: for activation state induced in the screen: compounds regulating actin-cytoskeleton;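 for all read-outs here: phalloidin and DAPI stained hMDMs imaged by high-content microscopy, cell eccentricity compared with DMSO control by T-test, round morphology scored negative, elongated positive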
Method: The Z-score was calculated by T-test to measure the difference of cell morphology between treatment and control. Stimuli had negative Z-scores when induced cells to round morphology and positive scores when induced cells to elongated morphology. […] Equally mixed human monocytes isolated from fresh blood of 4 healthy donors were cultured in vitro with 50 ng/mL M-CSF for 7 days. hMDMs were trypsinized and plated on 384-well plates (5000 cells/well in 50 μL). Cells were recovered in 10 ng/mL M-CSF for 16 hrs and then treated with compounds for 24 hrs. Cells were washed, fixed and stained with Phalloidin and DAPI. The plates were scanned with a high-content microscope with six-fields per well to quantify the cell number and cell morphology. […] The cell eccentricity was calculated to measure the cell morphology. The Z-score was calculated by T-test to measure the difference in cell morphologies between each compound and DMSO control.
Cells were treated with a library of over 4000 individual compounds or drugs at the final concentration of 20 μM using the CyBi-Well simultaneous pipettor (CyBio). […] After 24 hr incubation, supernatants were removed using the microplate washer (Bioteck) and cells were fixed by adding 50 μL 16% paraformaldehyde (Thermo Scientific) with the dispenser for 20 minutes. Cells were then washed with 50 μL 1×PBS twice and incubated for 20 minutes with NucBlue and AF746 Phalloidin (Invitrogen) to stain nucleus and cytoskeleton. Cells were then washed with 50 μL 1×PBS twice and maintained in PBS for the image acquirement. Plates were read in the Opera Phenix high content screening system (PerkinElmer) to photograph cells using 20× objective in 2 fluorescent channels (Blue and FarRed). A total of 6 different fields in each well and an average of 1,000 cells were imaged per well. CellProfiler was used to identify each cell by overlapping signals from its nucleus and cytoskeleton, and calculate the eccentricity as the parameter to measure the cell morphology. The Z-score was calculated by T-test to measure the difference of cell morphology between each treatment and control. For each row of the 384-well plate, total 4 wells with first and last two columns treated with the same concentration of DMSO were combined as the control for the other 20 treatment wells in that row. In the meantime, classic M1 and M2 stimuli were added to generate the gold-standard Z-score cutoffs with M1 or M2 activation. Classic M1 stimuli include LPS (100 ng/mL), IFNγ (50 ng/mL, Peprotech), TNFα (50 ng/mL, Peprotech), or IFNγ plus TNFα. Classic M2 stimuli include IL-10 (10 ng/mL, Peprotech), IL-4 (10 ng/mL, Peprotech), or IL-13 (5 ng/mL, Peprotech).

M0 macrophages (hMDMs) = assay: Dosage response of cell shape change on M0 macrophages; type: cell-based, human; conditions: M0 macrophages; for EC: EC = concentration inducing cell morphology changes to reach the M1 or M2 Z-score cutoff, Michaelis-Menten fit, 3 independent experiments, unit of the source corrected; for Max absolute Z-value: Max Z-score from Michaelis-Menten equation, negative = round, positive = elongated

## NCCc1c[nH]c2ccc(O)cc12 [5HT, serotonin]
hMDMs
  gene expression of TPP modules (#30, #32): down-regulated
  gene expression of typical M1 modules (#7, #8): up-regulated

## COC(=O)Nc1nc2ccc(Sc3ccccc3)cc2[nH]1 [Fenbendazole]
[1]
  EC (M1 Z-score cutoff): 0.649 µM
[2]
  activation state induced in the screen: M1-activating
hMDMs
  macrophage phenotype at transcriptional and translational level: activated macrophages toward M1-like phenotype

## CN1c2cc3c(cc2N=C(c2ccc(C(=O)O)cc2)c2ccccc21)C(C)(C)CCC3(C)C [LE135]
M0 macrophages (hMDMs)
  Category: M1 (−4 for M1-activated macrophages)
  EC: 0.419 µM
  Max absolute Z-value: −8.912

## O=C(Nc1nc2ccc(NC(=O)C34CC5CC(CC(C5)C3)C4)cc2s1)c1ccccc1 [NVP 231]
M0 macrophages (hMDMs)
  Category: M1 (−4 for M1-activated macrophages)
  EC: 2.25 µM
  Max absolute Z-value: −22.37
[1]; M1-activating compounds on M2-like macrophages (IL-4 plus IL-13), EC = concentration reaching Z-score cutoff
  EC: 5.745 µM
[1]; differentiated macrophages
  Category: M1 (−4 for M1-activated macrophages)
[2]; cell shape Z-score of hMDMs treated with compound at 20 µM for 24 hours, averaged over the compounds listed for the WikiPathways pathway, negative = M1-like, positive = M2-like
  Average Z-value: −4.79

## CC(=O)O[C@H]1C(=O)[C@@]2(C)[C@H]([C@H](OC(=O)c3ccccc3)[C@]3(O)C[C@H](OC(=O)[C@H](O)[C@@H](NC(=O)c4ccccc4)c4ccccc4)C(C)=C1C3(C)C)[C@]1(OC(C)=O)CO[C@@H]1C[C@@H]2O [Taxol]
[1]
  EC (M1 Z-score cutoff): 0.129 µM
[2]
  activation state induced in the screen: M1-activating
hMDMs
  macrophage phenotype at transcriptional and translational level: activated macrophages toward M1-like phenotype

## NCCc1ccc(O)c(O)c1 [dopamine]
hMDMs
  gene expression of TPP modules (#30, #32): up-regulated
  gene expression of typical M1 modules (#7, #8): down-regulated

## VEGF
hMDMs
  gene expression of TPP modules (#30, #32): down-regulated
  gene expression of typical M1 modules (#7, #8): up-regulated

## leptin: ligand of novel pathway
hMDMs
  gene expression of TPP modules (#30, #32): down-regulated
  gene expression of typical M1 modules (#7, #8): up-regulated
